# Experimental data: ChEMBL document CHEMBL3425423, “Hydroxy tricyclic 1,5-naphthyridinone oxabicyclooctane-linked novel bacterial topoisomerase inhibitors as broad-spectrum antibacterial agents-SAR of RHS moiety (Part-3)” (Bioorg Med Chem Lett, 2015)
# Tests used:
# Streptococcus pneumoniae = assay: Antibacterial activity against Streptococcus pneumoniae IID554; format: functional
# Escherichia coli = assay: Antibacterial activity against Escherichia coli ATCC 25922; format: functional
# Moraxella catarrhalis = assay: Antibacterial activity against Moraxella catarrhalis ATCC 25238; format: functional
# Acinetobacter baumannii = assay: Antibacterial activity against Acinetobacter baumannii IID876; format: functional
# Enterococcus faecium = assay: Antibacterial activity against VanA-type vancomycin-resistant Enterococcus faecium A2373; format: functional
# Enterococcus faecalis = assay: Antibacterial activity against Enterococcus faecalis ATCC 29212; format: functional
# Staphylococcus aureus [1] = assay: Antibacterial activity against Staphylococcus aureus Smith; format: functional
# [2] = molecular target: T1, Voltage-gated inwardly rectifying potassium channel KCNH2 (Homo sapiens, UniProt Q12809); assay: Inhibition of human ERG expressed in CHO cells measured over 5 mins by patch clamp assay
# Staphylococcus aureus [3] = assay: Ratio of MIC for quinolone-resistant Staphylococcus aureus MS5935 to MIC for quinolone-sensitive Staphylococcus aureus; format: functional
# Pseudomonas aeruginosa = assay: Antibacterial activity against Pseudomonas aeruginosa PAO1; format: functional
# Haemophilus influenzae = assay: Antibacterial activity against Haemophilus influenzae ATCC 49247; format: functional
# [4] = molecular target: T1, Voltage-gated inwardly rectifying potassium channel KCNH2; assay: Displacement of MK499 from human ERG
# [5] = Streptococcus pneumoniae, IID554, read-out: MIC
# [6] = Escherichia coli, ATCC 25922, read-out: MIC
# [7] = Moraxella catarrhalis, ATCC 25238, read-out: MIC
# [8] = Acinetobacter baumannii, IID876, read-out: MIC
# [9] = Enterococcus faecium, A2373, read-out: MIC
# [10] = Enterococcus faecalis, ATCC 29212, read-out: MIC
# [11] = Staphylococcus aureus, Smith, read-out: MIC
# [12] = Pseudomonas aeruginosa, PAO1, read-out: MIC
# [13] = Haemophilus influenzae, ATCC 49247, read-out: MIC
# T1 sequence (Q12809 whole entry): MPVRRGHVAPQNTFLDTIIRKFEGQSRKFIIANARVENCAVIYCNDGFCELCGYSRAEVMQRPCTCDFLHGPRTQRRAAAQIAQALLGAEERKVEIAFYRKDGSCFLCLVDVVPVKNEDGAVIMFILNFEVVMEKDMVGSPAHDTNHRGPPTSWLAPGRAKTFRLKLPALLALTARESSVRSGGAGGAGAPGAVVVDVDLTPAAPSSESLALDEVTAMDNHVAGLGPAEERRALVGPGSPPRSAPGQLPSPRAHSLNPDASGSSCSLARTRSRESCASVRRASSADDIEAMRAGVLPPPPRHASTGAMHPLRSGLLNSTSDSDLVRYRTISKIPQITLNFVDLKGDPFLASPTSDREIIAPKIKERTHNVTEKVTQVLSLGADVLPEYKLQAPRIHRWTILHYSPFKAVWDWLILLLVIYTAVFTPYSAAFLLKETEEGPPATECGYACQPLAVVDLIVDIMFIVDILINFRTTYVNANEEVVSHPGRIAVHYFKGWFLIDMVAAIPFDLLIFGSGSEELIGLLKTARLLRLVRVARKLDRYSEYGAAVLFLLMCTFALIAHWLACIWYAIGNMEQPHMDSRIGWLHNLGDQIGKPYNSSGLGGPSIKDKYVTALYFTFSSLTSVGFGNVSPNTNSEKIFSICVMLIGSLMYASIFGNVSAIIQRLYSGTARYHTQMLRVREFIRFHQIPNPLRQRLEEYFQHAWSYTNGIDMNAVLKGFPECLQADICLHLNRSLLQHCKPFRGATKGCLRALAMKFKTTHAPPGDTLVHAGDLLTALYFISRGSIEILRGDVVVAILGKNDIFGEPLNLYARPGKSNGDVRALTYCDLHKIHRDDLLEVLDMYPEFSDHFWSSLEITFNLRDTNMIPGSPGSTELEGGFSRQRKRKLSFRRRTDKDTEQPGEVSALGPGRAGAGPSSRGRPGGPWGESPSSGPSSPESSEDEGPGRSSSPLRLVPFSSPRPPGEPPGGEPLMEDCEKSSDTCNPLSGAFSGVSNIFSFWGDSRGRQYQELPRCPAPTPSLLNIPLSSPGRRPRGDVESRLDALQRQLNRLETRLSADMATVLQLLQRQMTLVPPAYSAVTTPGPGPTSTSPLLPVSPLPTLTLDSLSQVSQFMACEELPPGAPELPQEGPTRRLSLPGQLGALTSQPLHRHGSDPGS
Structure (SMILES),MIC (Streptococcus pneumoniae; [5]),MIC (Escherichia coli; [6]),MIC (Moraxella catarrhalis; [7]),MIC (Acinetobacter baumannii; [8]),MIC (Enterococcus faecium; [9]),MIC (Enterococcus faecalis; [10]),MIC (Staphylococcus aureus [1]; [11]),IC50 [2],Ratio (Staphylococcus aureus [3]),MIC (Pseudomonas aeruginosa; [12]),MIC (Haemophilus influenzae; [13]),IC50 [4],further results
O=c1ccc2ncc(F)c3c2n1C[C@@]3(O)CC12CCC(NCc3cc4c(cn3)OCCS4(=O)=O)(CC1)CO2,4 µg/mL,32 µg/mL,32 µg/mL,32 µg/mL,32 µg/mL,32 µg/mL,8 µg/mL,> 60 µM,<4,32 µg/mL,32 µg/mL,> 60 µM,
O=c1ccc2ncc(F)c3c2n1C[C@@]3(O)CC12CCC(NCc3cc4c(cn3)S(=O)(=O)CCO4)(CC1)CO2,32 µg/mL,32 µg/mL,32 µg/mL,32 µg/mL,32 µg/mL,32 µg/mL,8 µg/mL,> 60 µM,<4,32 µg/mL,32 µg/mL,> 60 µM,
O=c1ccc2ncc(F)c3c2n1C[C@@]3(O)CC12CCC(NCc3cc4c(nn3)OCCO4)(CC1)CO2,2 µg/mL,32 µg/mL,32 µg/mL,32 µg/mL,32 µg/mL,8 µg/mL,4 µg/mL,,,32 µg/mL,32 µg/mL,,
O=c1ccc2ncc(F)c3c2n1C[C@@]3(O)CC12CCC(NCc3ncc4c(n3)OCCO4)(CC1)CO2,4 µg/mL,32 µg/mL,32 µg/mL,32 µg/mL,32 µg/mL,32 µg/mL,8 µg/mL,,,32 µg/mL,32 µg/mL,,
O=c1ccc2ncc(F)c3c2n1C[C@@]3(O)CC12CCC(NCc3ccc4c(c3Cl)OCCO4)(CC1)CO2,1 µg/mL,32 µg/mL,32 µg/mL,32 µg/mL,32 µg/mL,8 µg/mL,1 µg/mL,,,32 µg/mL,32 µg/mL,,
O=c1ccc2ncc(F)c3c2n1C[C@@]3(O)CC12CCC(NCc3ccc4c(n3)OCCN4)(CC1)CO2,8 µg/mL,32 µg/mL,32 µg/mL,32 µg/mL,32 µg/mL,32 µg/mL,8 µg/mL,,<4,32 µg/mL,32 µg/mL,,
O=c1ccc2ncc(F)c3c2n1C[C@@]3(O)CC12CCC(NCc3ccc4c(n3)NCCN4)(CC1)CO2,16 µg/mL,32 µg/mL,32 µg/mL,32 µg/mL,32 µg/mL,32 µg/mL,8 µg/mL,> 60 µM,<4,32 µg/mL,,> 60 µM,
CN1CCOc2ccc(CNC34CCC(C[C@]5(O)Cn6c(=O)ccc7ncc(F)c5c76)(CC3)OC4)nc21,8 µg/mL,32 µg/mL,,32 µg/mL,32 µg/mL,32 µg/mL,4 µg/mL,> 60 µM,<4,32 µg/mL,,> 60 µM,
CC1COc2cc(CNC34CCC(C[C@]5(O)Cn6c(=O)ccc7ncc(F)c5c76)(CC3)OC4)ncc2O1 (stereo in doubt; 19),,32 µg/mL,4 µg/mL,16 µg/mL,32 µg/mL,16 µg/mL,,,<4,32 µg/mL,32 µg/mL,,MIC (Streptococcus pneumoniae): 4 µg/mL; MIC (Staphylococcus aureus [1]): 2 µg/mL
CC1COc2cc(CNC34CCC(C[C@]5(O)Cn6c(=O)ccc7ncc(F)c5c76)(CC3)OC4)ncc2O1 (stereo in doubt; 20),2 µg/mL,,,,,,1 µg/mL,> 60 µM,,,,> 60 µM,MIC (Escherichia coli): 32 µg/mL; MIC (Moraxella catarrhalis): 2 µg/mL; MIC (Acinetobacter baumannii): 16 µg/mL; MIC (Enterococcus faecium): 32 µg/mL; MIC (Enterococcus faecalis): 8 µg/mL; MIC (Pseudomonas aeruginosa): 32 µg/mL; MIC (Haemophilus influenzae): 16 µg/mL
CC1COc2cnc(CNC34CCC(C[C@]5(O)Cn6c(=O)ccc7ncc(F)c5c76)(CC3)OC4)cc2O1 (stereo in doubt; 21),,32 µg/mL,32 µg/mL,32 µg/mL,32 µg/mL,16 µg/mL,,,,32 µg/mL,32 µg/mL,,MIC (Streptococcus pneumoniae): 2 µg/mL; MIC (Staphylococcus aureus [1]): 4 µg/mL
CC1COc2cnc(CNC34CCC(C[C@]5(O)Cn6c(=O)ccc7ncc(F)c5c76)(CC3)OC4)cc2O1 (stereo in doubt; 22),4 µg/mL,,,,,,4 µg/mL,,,,,,MIC (Escherichia coli): 32 µg/mL; MIC (Moraxella catarrhalis): 32 µg/mL; MIC (Acinetobacter baumannii): 32 µg/mL; MIC (Enterococcus faecium): 32 µg/mL; MIC (Enterococcus faecalis): 32 µg/mL; MIC (Pseudomonas aeruginosa): 32 µg/mL; MIC (Haemophilus influenzae): 32 µg/mL
